Measured values published in PubChem BioAssay AID270 (DTP/NCI, 2004).
Several values for one entry are separate records, joined by “and”; a condition that tells them apart may be missing. Equal values may be shown once. Records with an inconclusive call do not appear.

System: BDF1 mice, s.c. Lewis lung carcinoma, T/C %
Assay: NCI In Vivo Anticancer Drug Screen. Data for tumor model Lewis Lung Carcinoma (subcutaneous) in B6D2F1 (BDF1) mice
Summary of the method: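 Antitumor effect in vivo is scored from survival or tumor burden, reported as treated relative to vehicle controls.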

CC1OC(Oc2c(-c3ccc(O)c(O)c3)oc3cc(O)cc(O)c3c2=O)C(O)C(O)C1O (stereo not given)
T/C (endpoint: mean tumor weight, dose: 62.5 mg/kg/injection, schedule: Q01DX011 (ip), vehicle: saline, higher = larger tumour): 92 % of control
T/C (endpoint: mean tumor weight, dose: 125.0 mg/kg/injection, schedule: Q01DX011 (ip), vehicle: saline, higher = larger tumour): 93 % of control
T/C (endpoint: mean tumor weight, dose: 250.0 mg/kg/injection, schedule: Q01DX011 (ip), vehicle: saline, higher = larger tumour): 99 % of control
T/C (endpoint: mean tumor weight, dose: 500.0 mg/kg/injection, schedule: Q01DX011 (ip), vehicle: saline, higher = larger tumour): 51 % of control

CC[C@]1(O)C[C@H]2CN(CCc3c([nH]c4ccccc34)[C@@](C(=O)OC)(c3cc4c(cc3OC)N(C)[C@H]3[C@@](O)(C(=O)OC)[C@H](OC(C)=O)[C@]5(CC)C=CCN6CC[C@]43[C@@H]65)C2)C1
T/C (endpoint: mean tumor weight, dose: 0.12 mg/kg/injection, schedule: Q01DX011 (ip), vehicle: saline, higher = larger tumour): 109 % of control
T/C (endpoint: mean tumor weight, dose: 0.24 mg/kg/injection, schedule: Q01DX011 (ip), vehicle: saline, higher = larger tumour): 94 % of control
T/C (endpoint: mean tumor weight, dose: 0.36 mg/kg/injection, schedule: Q01DX011 (ip), vehicle: saline, higher = larger tumour): 84 % of control
T/C (endpoint: mean tumor weight, dose: 0.54 mg/kg/injection, schedule: Q01DX011 (ip), vehicle: saline, higher = larger tumour): 99 % of control
T/C (endpoint: mean tumor weight, dose: 0.8 mg/kg/injection, schedule: Q01DX011 (ip), vehicle: saline, higher = larger tumour): 60 % of control
T/C (endpoint: mean tumor weight, dose: 0.81 mg/kg/injection, schedule: Q01DX011 (ip), vehicle: saline, higher = larger tumour): 111 % of control
T/C (endpoint: mean tumor weight, dose: 125.0 micrograms/kg/injection, schedule: Q01DX011 (ip), vehicle: saline, higher = larger tumour): 61 % of control
T/C (endpoint: mean tumor weight, dose: 250.0 micrograms/kg/injection, schedule: Q01DX011 (ip), vehicle: saline, higher = larger tumour): 53 % of control
T/C (endpoint: median survival time, dose: 0.06 mg/kg/injection, schedule: Q01DX009 (ip), vehicle: saline, higher = longer survival): 101 % of control and 118 % of control
T/C (endpoint: median survival time, dose: 0.12 mg/kg/injection, schedule: Q01DX009 (ip), vehicle: saline, higher = longer survival): 88 % of control
T/C (endpoint: median survival time, dose: 0.25 mg/kg/injection, schedule: Q01DX009 (ip), vehicle: saline, higher = longer survival): 96 % of control

O=c1cc(CO)[nH]cc1O
T/C (endpoint: mean tumor weight, dose: 25.0 mg/kg/injection, schedule: Q01DX011 (ip), vehicle: methylcellulose (MC), higher = larger tumour): 81 % of control
T/C (endpoint: mean tumor weight, dose: 50.0 mg/kg/injection, schedule: Q01DX011 (ip), vehicle: methylcellulose (MC), higher = larger tumour): 77 % of control
T/C (endpoint: mean tumor weight, dose: 100.0 mg/kg/injection, schedule: Q01DX011 (ip), vehicle: methylcellulose (MC), higher = larger tumour): 63 % of control
T/C (endpoint: mean tumor weight, dose: 500.0 mg/kg/injection, schedule: Q01DX011 (ip), vehicle: methylcellulose (MC), higher = larger tumour): 62 % of control
T/C (endpoint: mean tumor weight, dose: 600.0 mg/kg/injection, schedule: Q01DX011 (ip), vehicle: methylcellulose (MC), higher = larger tumour): 82 % of control
T/C (endpoint: mean tumor weight, dose: 700.0 mg/kg/injection, schedule: Q01DX011 (ip), vehicle: methylcellulose (MC), higher = larger tumour): 115 % of control

OCC1=CCN2CC[C@@H](O)[C@@H]12
T/C (endpoint: mean tumor weight, dose: 25.0 mg/kg/injection, schedule: Q01DX011 (ip), vehicle: carboxymethylcellulose (CMC), higher = larger tumour): 122 % of control
T/C (endpoint: mean tumor weight, dose: 50.0 mg/kg/injection, schedule: Q01DX011 (ip), vehicle: carboxymethylcellulose (CMC), higher = larger tumour): 117 % of control
T/C (endpoint: mean tumor weight, dose: 100.0 mg/kg/injection, schedule: Q01DX011 (ip), vehicle: carboxymethylcellulose (CMC), higher = larger tumour): 111 % of control
T/C (endpoint: mean tumor weight, dose: 200.0 mg/kg/injection, schedule: Q01DX011 (ip), vehicle: carboxymethylcellulose (CMC), higher = larger tumour): 106 % of control
